The values that follow come from patent US10654843B2, “LMP7 inhibitors” (PRINCIPIA BIOPHARMA INC., priority 2014, dated 2020).

SMILES strings stand for the structures. Like-named read-outs stand apart in the source and are kept apart here.

For assay [1], the target named is immunoproteasome (LMP7/B5i) (Homo sapiens, UniProt P20618+P28062). Kind of assay: Caliper-based proteasome assay, immunoproteasome chymotrypsin-like activity. The class given is biochemical. The note with it: human recombinant immunoproteasome 0.3 nM, FAM-labeled peptide substrate 1 μM, room temperature 3 h. The method, then: (§1) A Caliper-based proteasome assay (Caliper Life Sciences, Hopkinton, Mass.) was used to measure inhibition of the chymotrypsin-like activity of both immunoproteasome (LMP7/B5i) and the constitutive proteasome (B5c) for a compound of Formula (I). Serial dilutions of test compounds were incubated with either human recombinant immunoproteasome or constitutive proteasome (0.3 nM enzyme) and a carboxyfluorescein (FAM)-labeled peptide substrate FAM-TYETFKSIMKKSPF-NH2 (1 μM) at room temperature for 3 h. The reaction buffer was 20 mM Hepes pH 7.4, 0.01% bovine serum albumin, 0.015% SDS, 0.5 mM EDTA, 1% DMSO. The reaction was then terminated with a buffer containing the known proteasome inhibitor carfilzomib at a concentration of 5 uM. The peptide cleavage reaction product was quantified on a Caliper LabChip 3000. Percent inhibition was calculated for each compound dilution and the concentration that produced 50% inhibition was calculated. This value is presented as the IC50.

Assay [2] addresses constitutive proteasome (B5c) (Homo sapiens, UniProt P20618+P28074). Kind of assay: Caliper-based proteasome assay, constitutive proteasome chymotrypsin-like activity. The class given is biochemical. To be noted: human recombinant constitutive proteasome 0.3 nM, FAM-labeled peptide substrate 1 μM, room temperature 3 h. The method, then:
as §1

Assay [3] has as its target T1, proteasome activity in HT-29 cells (enriched in constitutive proteasome) (Homo sapiens, UniProt P28074).
T1 construct: endogenous in cells; host or cells: HT-29
The assay is described as follows: Inhibition of proteasome activity in cells (Proteasome-Glo), HT-29. To be noted: 2 hr incubation, Suc-LLVY-aminoluciferin, read-out: HT29 IC50. It is filed as cell-based. The method, then:
(§2) The cell-based effects of the compound of the present disclosure on immunoproteasome were determined by measuring inhibition of proteasome activity in cells using the Proteasome-Glo™ Cell-Based Reagent (Promega, Madison Wis). The Proteasome-Glo™ assay contains a specific luminogenic proteasome substrate in a buffer optimized for cell permeabilization, proteasome activity, and luciferase activity. For the chymotrypsin-like activity, the peptide substrate is Suc-LLVY-aminoluciferin (Succinyl-leucine-leucine-valine-tyrosine-aminoluciferin). Cleavage of the substrate by proteasome results in luminescent signal which is proportional to the proteasome activity. The cell line THP-1 (a monocytic leukemia cell line enriched in immunoproteasome), the cell line HT-29 (a colorectal adenocarcinoma cell line enriched in constitutive proteasome), and primary human peripheral blood mononuclear cells (PBMC) were used to assess proteasome activity. Cells were seeded in a 96-well plate at 10,000 cells per well in RPMI 1640 high glucose medium with 10% fetal bovine serum (FBS). Compound dilutions were added to cells starting at a concentration of 5 uM and decreasing in tripling dilutions. The final DMSO concentration was 1%. The concentration range was adjusted as needed for compounds of different potencies. The cells treated with compounds were incubated for 2 hr at 37° C. in 5% CO2. At the end of the 2 hour incubation period, cells were transferred to white 384 well assay plates. 20 uL of Proteasome-Glo™ Reagent was added to each well and incubated for 10 minutes at room temperature. The plate was read in the Analyst HT instrument (Molecular Devices, Sunnyvale, Calif.) using luminescence mode. The percent inhibition of activity was plotted as a function of log compound concentration. The IC50 was then calculated for each compound using Prism software from GraphPad Software Inc. (San Diego, Calif).

The target in assay [4] is T2, proteasome activity in primary human peripheral blood mononuclear cells (PBMC) (Homo sapiens, UniProt P28062).
T2 construct: endogenous in cells; host or cells: primary human PBMC
Kind of assay: Inhibition of proteasome activity in cells (Proteasome-Glo), PBMC. It is filed as cell-based. The note with it: 2 hr incubation, Suc-LLVY-aminoluciferin. As for the experimental part: as §2

Assay [5] addresses T3, proteasome activity in HT-29 cells (Homo sapiens, UniProt P28074).
T3 construct: endogenous in cells; host or cells: HT-29
The assay is described as follows: Durability of binding in cells, wash-out assay (Proteasome-Glo), HT-29. The class given is cell-based. To be noted: 2 hours incubation, washout. As for the experimental part:
The durability of binding of proteasome inhibitors was assessed in cells using wash-out assays and the Proteasome-Glo™ Reagent kit. THP-1 cells, HT-29 cells, or PBMC were incubated with an 8-fold dilution series of inhibitor for 2 hours. Following 2 hours of incubation, cells were washed using 3 occasions of centrifugation followed by resuspension in culture medium. Following inhibitor washout, cells were returned to culture for either 30 minutes, 4 hours, or 18 hours. Cells were then transferred to white 384 plates, and 20 uL of Proteasome-Glo™ Reagent was added to each well for 10 minutes. Plates were then read on an Analyst HT plate reader using luminescence mode. The percent inhibition of activity was plotted as a function of log compound concentration. The IC50 was then calculated for each compound using Prism software from GraphPad.

Setting [6] is: 30 minutes in culture, read-out: HT29 (30 min) IC50.
Where [7] appears, read: 4 hours in culture, read-out: HT29 (4 h) IC50.

For orientation: IC50 means the concentration that inhibits the measured activity by half. On to `Cc1ccc(CNC(=O)[C@H](COc2cccc(C=C(C#N)C(=O)N(C)C)c2)NC(=O)[C@@H](NC(=O)c2cc(C)on2)[C@@H](C)O)cc1` [Example 1, N-((2S,3R)-1-(((S)-3-(3-(2-cyano-3-(dimethylamino)-3-oxoprop-1-en-1-yl)phenoxy)-1-((4-methylbenzyl)amino)-1-oxopropan-2-yl)amino)-3-hydroxy-1-oxobutan-2-yl)-5-methylisoxazole-3-carboxamide], for which the half-maximal inhibitory concentration (IC50) in assay [1] turned out to be 31 nM; in assay [2], 274 nM.

Take `Cc1ccc(CNC(=O)[C@H](COc2cccc(C=C(C#N)C(=O)NC(C)(C)C)c2)NC(=O)[C@@H](NC(=O)c2cc(C)on2)[C@@H](C)O)c(F)c1` [Example 7, N-((2S,3R)-1-(((S)-3-(3-(3-(tert-butylamino)-2-cyano-3-oxoprop-1-en-1-yl)phenoxy)-1-((2-fluoro-4-methylbenzyl)amino)-1-oxopropan-2-yl)amino)-3-hydroxy-1-oxobutan-2-yl)-5-methylisoxazole-3-carboxamide]: the figures for the IC50 in assay [1] and in assay [2] were 11 nM and 2140 nM, respectively.

Regarding `Cc1ccc(CNC(=O)[C@H](COc2cccc(C=C(C#N)n3cncn3)c2)NC(=O)[C@@H](NC(=O)c2cc(C)on2)[C@@H](C)O)cc1` [Example 8a, N-((2S,3R)-1-(((S)-3-(3-(2-cyano-2-(1H-1,2,4-triazol-1-yl)vinyl)phenoxy)-1-((4-methylbenzyl)amino)-1-oxopropan-2-yl)amino)-3-hydroxy-1-oxobutan-2-yl)-5-methylisoxazole-3-carboxamide], the IC50 was 17 nM in assay [1]; 120 nM in assay [2]; 200 nM in assay [3]; 10 nM in assay [4]; 580 nM in assay [5] (setting [6]); greater than 5000 nM in assay [5] (setting [7]).

For `Cc1ccc(CNC(=O)[C@H](CCc2cccc(C=C(C#N)C(=O)N(C)C)c2)NC(=O)[C@@H](NC(=O)c2cc(C)on2)[C@@H](C)O)cc1` [Example 15, N-((2S,3R)-1-(((S)-4-(3-(2-cyano-3-(dimethylamino)-3-oxoprop-1-en-1-yl)phenyl)-1-((4-methylbenzyl)amino)-1-oxobutan-2-yl)amino)-3-hydroxy-1-oxobutan-2-yl)-5-methylisoxazole-3-carboxamide], the IC50 is 20 nM in assay [1]; 61 nM in assay [2]; 84 nM in assay [3]; 13 nM in assay [4]; greater than 5000 nM in assay [5] (setting [6]); greater than 5000 nM in assay [5] (setting [7]).

For `Cc1ccc(CNC(=O)[C@H](CCCCNC(=O)C(C#N)=CC(C)C)NC(=O)[C@@H](NC(=O)c2cc(C)on2)[C@@H](C)O)cc1` [Example 21, N-((2S,3R)-1-(((S)-6-(2-cyano-4-methylpent-2-enamido)-1-((4-methylbenzyl)-amino)-1-oxohexan-2-yl)amino)-3-hydroxy-1-oxobutan-2-yl)-5-methylisoxazole-3-carboxamide], the IC50 was 5 nM in assay [1]; 143 nM in assay [2]; 646 nM in assay [3]; 23 nM in assay [4]; greater than 5000 nM in assay [5] (setting [6]).

Take `Cc1ccc(CNC(=O)[C@H](CCCCNC(=O)C(C#N)=CC(C)(C)C)NC(=O)[C@@H](C)NC(=O)c2cc(C)on2)cc1` [Example 21d, N—((R)-1-(((S)-6-(2-cyano-4,4-dimethylpent-2-enamido)-1-((4-methylbenzyl)amino)-1-oxohexan-2-yl)amino)-1-oxopropan-2-yl)-5-methylisoxazole-3-carboxamide]: the half-maximal inhibitory concentration (IC50) is 144 nM in assay [1] and 3950 nM in assay [2].

Turning to `Cc1ccc(CNC(=O)[C@H](CCCCN(C)C(=O)C(C#N)=CC(C)C)NC(=O)[C@@H](NC(=O)c2cc(C)on2)[C@@H](C)O)cc1` [Example 22, N-((2S,3R)-1-(((S)-6-(2-cyano-N,4-dimethylpent-2-enamido)-1-((4-methylbenzyl)-amino)-1-oxohexan-2-yl)amino)-3-hydroxy-1-oxobutan-2-yl)-5-methylisoxazole-3-carboxamide], the figures for the half-inhibitory concentration (IC50) in assay [1] and in assay [2] were 37 nM and 704 nM, respectively.

As for `Cc1ccc(CNC(=O)[C@H](Cc2cccc(NC(=O)C(C#N)=CC(C)C)c2)NC(=O)[C@@H](NC(=O)c2cc(C)on2)[C@@H](C)O)cc1` [Example 24, N-((2S,3R)-1-(((S)-3-(3-(2-cyano-4-methylpent-2-enamido)phenyl)-1-((4-methyl-benzyl)amino)-1-oxopropan-2-yl)amino)-3-hydroxy-1-oxobutan-2-yl)-5-methylisoxazole-3-carboxamide], the IC50 in assay [1] was found to be 64 nM; in assay [2], 3210 nM.

Turning to `Cc1ccc(CNC(=O)[C@H](Cc2cccc(N(C)C(=O)C(C#N)=CC(C)C)c2)NC(=O)[C@@H](NC(=O)c2cc(C)on2)[C@@H](C)O)cc1` [Example 25, N-((2S,3R)-1-(((S)-3-(3-(2-cyano-N,4-dimethylpent-2-enamido)phenyl)-1-((4-methylbenzyl)amino)-1-oxopropan-2-yl)amino)-3-hydroxy-1-oxobutan-2-yl)-5-methylisoxazole-3-carboxamide], the half-maximal inhibitory concentration (IC50) in assay [1] was 29 nM; in assay [2], 1450 nM; in assay [3], 1180 nM; in assay [4], 15 nM; in assay [5] (setting [6]) it was greater than 5000 nM; in assay [5] (setting [7]) it was greater than 5000 nM.

Consider `Cc1ccc(CNC(=O)[C@H](Cc2cccc(N(C)C(=O)C(C#N)=CC(C)C)c2)NC(=O)[C@@H](NC(=O)c2cc(C)on2)[C@@H](C)O)c(F)c1` [Example 27, N-((2S,3R)-1-(((S)-3-(3-(2-cyano-N,4-dimethylpent-2-enamido)phenyl)-1-((2-fluoro-4-methylbenzyl)amino)-1-oxopropan-2-yl)amino)-3-hydroxy-1-oxobutan-2-yl)-5-methylisoxazole-3-carboxamide], for which the half-inhibitory concentration (IC50) in assay [1] was 21 nM; in assay [2], 147 nM; in assay [3] it was 360 nM; in assay [4], 13 nM; in assay [5] (setting [6]), 3800 nM; in assay [5] (setting [7]), greater than 5000 nM.

On to `Cc1ccc(CNC(=O)[C@H](CC2CCN(C(=O)C(C#N)=CC(C)C)CC2)NC(=O)[C@@H](NC(=O)c2cc(C)on2)[C@@H](C)O)cc1` [Example 29, N-((2S,3R)-1-(((S)-3-(1-(2-cyano-4-methylpent-2-enoyl)piperidin-4-yl)-1-((4-methylbenzyl)amino)-1-oxopropan-2-yl)amino)-3-hydroxy-1-oxobutan-2-yl)-5-methylisoxazole-3-carboxamide], for which the IC50 was determined as 103 nM in assay [1] and 788 nM in assay [2].
